Data taken from patent US20120045393A1 (priority 2009, published 2012).
Read-outs that look alike come from different tables or passages of the source. Values belong to the molecule of their own block, whether it stands above or below them. Non-standard residues stand in square brackets, D forms with d. Residues, ends and D or L forms follow the SMILES beside them. *: point of attachment. X1 = NC(=O)NNC(=O)[C@@H]1CCCN1C[C@H](Cc1ccc(C(=O)c2ccccc2)cc1)N*; DOTA = O=C(O)CN1CCN(CC(=O)O)CCN(CC(=O)*)CCN(CC(=O)O)CC1; Bpa = N[C@@H](Cc1ccc(C(=O)c2ccccc2)cc1)C(=O)O; d2Nal = N[C@H](Cc1ccc2ccccc2c1)C(=O)O; pGlu = O=C1CC[C@@H](C(=O)O)N1; DO3A10CM = not defined here; Bpa4 = non-natural residue; Ampt4 = not defined here; azaGly = NNC(=O)O

Columns and labels:
[1] = In vitro metabolic stability in mouse liver homogenate at 37° C.; assay type: in vitro ADME; settings: for remaining at 1 h, 0.3 mg/mL: female, Tac:NCr:Foxn1nu/nu, mouse, tissue homogenate, pH 7.2
Experimental: Livers from 10 female Tac:NCr:Foxn1^nu/nu mice were excised, rinsed with ice cold PBS (no Ca^++ or Mg^++) and weighed. The tissues were minced with scissors in Petri dishes on ice with Tris buffered saline (Pierce BupH™ Tris buffered saline packs, #28376; 25 mM Tris, 150 mM NaCl, pH 7.2). After mincing, the tissues were dounce homogenized, and the total volume adjusted with ice cold Tris buffer (4 mL for every gram of excised tissue). The homogenate was centrifuged at ˜4000×g for 10 min at 4° C. The supernatants were aliquoted into Eppendorf tubes on ice (200 and 100 μl volumes) and stored at −80° C. Kidney homogenates were similarly prepared. […] The mixture was centrifuged at 4° C. for 20 min at 20,000×g to precipitate the protein; 10 μL (˜7.6 μCi) of the supernatant was injected into the HPLC for the analysis. […] Peaks at these retention times were also observed in the in vivo plasma sample (FIG. 1). […] After 0 and 60 min, the sample was removed from the incubator, immediately cooled on ice and 2 μL of 10 mM EDTA and 0.2 mL of ice-cooled MeOH were added, mixing after each addition. The proteins in the sample were separated by centrifugation at 14,000 rpm for 20 min. The supernatant was harvested and, in the samples spiked with the ^177Lu-analog, the radioactivity was measured using a Capintec dose calibrator to determine recovery. The sample was then analyzed by HPLC. […] After 0 and 60 min, the sample was removed from the incubator, immediately cooled on ice and 2 μL of 10 mM EDTA and 0.24 mL of ice-cooled methanol was added, mixing after each addition. The proteins in the sample were separated by centrifugation at 14,000 rpm for 20 min. The supernatant was collected and analyzed by LC/MS as described earlier herein.

[2] = test system: LHRH binding sites on human ovarian cancer cells (EFO-27);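 further: Cell-associated radioactivity on confluent EFO-27 monolayers in 96-well plates, measured by microplate scintillation counting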
[3] = molecular target: LHRH receptor (LHRH binding sites) on EFO-27 human ovarian cancer cells (human); experiment: competition with [125I-Tyr8]BRU-2477 for binding to EFO-27 cells
[4] = molecular target: LHRH binding sites on EFO-27 human ovarian cancer cells (human); experiment: competition with [125I-Tyr8]BRU-2477 on EFO-27 cells
[5] = molecular target: LHRH receptor (LHRH binding sites) on EFO-27 human ovarian cancer cells (human); experiment: competition with [125I-Tyr8]BRU-2477, EFO-27 cells
[6] = Table 19: analogs used in the stabilization studies

Molecule: N=C(N)NCCC[C@@H](NC(=O)[C@H](Cc1c[nH]cn1)NC(=O)[C@H](CO)NC(=O)[C@H](Cc1c[nH]c2ccccc12)NC(=O)[C@H](Cc1c[nH]cn1)NC(=O)[C@@H]1CCC(=O)N1)C(=O)N[C@@H](Cc1c[nH]c2ccccc12)C(=O)N[C@@H](Cc1ccc(O)cc1)C(=O)N1CCC[C@H]1C(=O)NNC(N)=O [BRU-2477, pGlu-His-Trp-Ser-His-Darg-Trp-Tyr-Pro-azaGly-NH2, reference compound] (HELM PEPTIDE1{[Glp].H.W.S.H.[dR].W.Y.P.[O=C(NN[*:1])[*:2]].[am]}$$$$V2.0)
remaining at 1 h, 0.3 mg/mL [1]: 11.9 ± 2.4% | EC50 ([2]; EFO-27 cells, competition with [125I-Tyr8]BRU-2477, 90 min): 0.74 µM | EC50 [2, 6]: 0.84 µM

Molecule: N=C(N)NCCC[C@H](NC(=O)[C@@H](Cc1ccc2ccccc2c1)NC(=O)CN1CCN(CC(=O)O)CCN(CC(=O)O)CCN(CC(=O)O)CC1)C(=O)N[C@@H](Cc1c[nH]c2ccccc12)C(=O)N[C@@H](CO)C(=O)N[C@@H](Cc1c[nH]cn1)C(=O)N[C@H](CCCNC(=N)N)C(=O)N[C@@H](Cc1c[nH]c2ccccc12)C(=O)N[C@@H](Cc1ccc(C(=O)c2ccccc2)cc1)CN1CCC[C@H]1C(=O)NNC(N)=O [BRU-3081] ({DOTA}-[d2Nal]RWSH[dR]W-X1)
metabolism in liver homogenate [1]: no metabolism was observed | EC50 [2, 6]: 0.3 µM

Molecule: N=C(N)NCCC[C@H](NC(=O)[C@@H](Cc1ccc2ccccc2c1)NC(=O)CN1CCN(CC(=O)O)CCN(CC(=O)O)CCN(CC(=O)O)CC1)C(=O)N[C@@H](Cc1c[nH]c2ccccc12)C(=O)N[C@@H](CO)C(=O)N[C@@H](Cc1c[nH]cn1)C(=O)N[C@H](CCCNC(=N)N)C(=O)N[C@@H](Cc1c[nH]c2ccccc12)C(=O)N[C@@H](Cc1ccc(C(=O)c2ccccc2)cc1)C(=O)N1CSC[C@H]1C(N)=O [Lu-BRU-3072]
remaining at 1 h, 0.3 mg/mL ([1]; liver homogenate at 37° C. for 60 min, mean ± SD, n = 3, read-out: % remaining (% of parent remaining)): 98.5 ± 0.2% | Stabilized relative to parent? ([1]; liver homogenate at 37° C. for 60 min, compared to Lu-BRU-2813 or unstabilized peptide): Yes

Molecule: N=C(N)NCCC[C@H](NC(=O)[C@@H](Cc1ccc2ccccc2c1)NC(=O)CN1CCN(CC(=O)O)CCN(CC(=O)O)CCN(CC(=O)O)CC1)C(=O)N[C@@H](Cc1c[nH]c2ccccc12)C(=O)N[C@@H](CO)C(=O)N[C@@H](Cc1c[nH]cn1)C(=O)N[C@H](CCCNC(=N)N)C(=O)N[C@@H](Cc1c[nH]c2ccccc12)C(=O)N[C@@H](Cc1ccc(C(=O)c2ccccc2)cc1)C(=O)N1C[C@H](N)C[C@H]1C(=O)NNC(N)=O [BRU-2995]
metabolism in liver homogenate [1]: no metabolism was observed | EC50 [2, 6]: 0.41 µM

Molecule: N=C(N)NCCC[C@H](NC(=O)[C@@H](Cc1ccc2ccccc2c1)NC(=O)CN1CCN(CC(=O)O)CCN(CC(=O)O)CCN(CC(=O)O)CC1)C(=O)N[C@@H](Cc1c[nH]c2ccccc12)C(=O)N[C@@H](CO)C(=O)N[C@@H](Cc1c[nH]cn1)C(=O)N[C@H](CCCNC(=N)N)C(=O)N[C@@H](Cc1c[nH]c2ccccc12)C(=O)N[C@@H](Cc1ccc(C(=O)c2ccccc2)cc1)C(=O)N1CSC[C@H]1C(N)=O [BRU-3072]
metabolism in liver homogenate ([1]; 37° C. for 60 min, Lu complexes of DO3A10CM peptides, unlabeled BRU-2477 derivatives): no metabolism was observed | times more potent than the comparator analog ([2]; BRU-2441 vs BRU-2439, BRU-2666 vs Sar1 analog, BRU-3072 vs Pro9 analog): ~2.5

Molecule: N=C(N)NCCC[C@H](NC(=O)[C@@H](Cc1ccc2ccccc2c1)NC(=O)CN1CCN(CC(=O)O)CCN(CC(=O)O)CCN(CC(=O)O)CC1)C(=O)N[C@@H](Cc1c[nH]c2ccccc12)C(=O)N[C@@H](CO)C(=O)N[C@@H](Cc1c[nH]cn1)C(=O)N[C@H](CCCNC(=N)N)C(=O)N[C@@H](Cc1c[nH]c2ccccc12)C(=O)N[C@@H](Cc1ccc(C(=O)c2ccccc2)cc1)C(=O)N1CC[C@H]1C(=O)NNC(N)=O [Lu-BRU-2993]
remaining at 1 h, 0.3 mg/mL [1]: 14.9 ± 13.2%

Molecule: N=C(N)NCCC[C@H](NC(=O)[C@@H](Cc1ccc2ccccc2c1)NC(=O)CN1CCN(CC(=O)O)CCN(CC(=O)O)CCN(CC(=O)O)CC1)C(=O)N[C@@H](Cc1c[nH]c2ccccc12)C(=O)N[C@@H](CO)C(=O)N[C@@H](Cc1c[nH]cn1)C(=O)N[C@H](CCCNC(=N)N)C(=O)N[C@@H](Cc1c[nH]c2ccccc12)C(=O)N[C@@H](Cc1ccc(C(=O)c2ccccc2)cc1)CN1CCC[C@H]1C(=O)NNC(N)=O [Lu-BRU-3081] ({DOTA}-[d2Nal]RWSH[dR]W-X1)
remaining at 1 h, 0.3 mg/mL [1]: 100%

Molecule: N=C(N)NCCC[C@@H](NC(=O)[C@H](Cc1c[nH]cn1)NC(=O)[C@H](CO)NC(=O)[C@H](Cc1c[nH]c2ccccc12)NC(=O)[C@H](Cc1c[nH]cn1)NC(=O)[C@@H]1CCC(=O)N1)C(=O)N[C@@H](Cc1c[nH]c2ccccc12)C(=O)N[C@@H](Cc1ccc(O)cc1)C(=O)N1C[C@@H](N)C[C@H]1C(=O)NNC(N)=O [BRU-3123] (HELM PEPTIDE1{[Glp].H.W.S.H.[dR].W.Y.[N[C@H]1C[C@@H](C(=O)[*:2])N([*:1])C1].[O=C(NN[*:1])[*:2]].[am]}$$$$V2.0)
remaining at 1 h, 0.3 mg/mL [1]: 100% | EC50 [2, 6]: 0.99 µM

Molecule: N=C(N)NCCC[C@H](NC(=O)[C@@H](Cc1ccc2ccccc2c1)NC(=O)CN1CCN(CC(=O)O)CCN(CC(=O)O)CCN(CC(=O)O)CC1)C(=O)N[C@@H](Cc1c[nH]c2ccccc12)C(=O)N[C@@H](CO)C(=O)N[C@@H](Cc1c[nH]cn1)C(=O)N[C@H](CCCNC(=N)N)C(=O)N[C@@H](Cc1c[nH]c2ccccc12)C(=O)N[C@@H](Cc1ccc(C(=O)c2ccccc2)cc1)C(=O)N1C[C@H](N)C[C@H]1C(=O)NNC(N)=O [Lu-BRU-2995]
remaining at 1 h, 0.3 mg/mL [1]: 98.7 ± 0.1%

Molecule: N=C(N)NCCC[C@@H](NC(=O)[C@H](Cc1c[nH]cn1)NC(=O)[C@H](CO)NC(=O)[C@H](Cc1c[nH]c2ccccc12)NC(=O)[C@H](Cc1c[nH]cn1)NC(=O)[C@@H]1CCC(=O)N1)C(=O)N[C@@H](Cc1c[nH]c2ccccc12)C(=O)N[C@@H](Cc1ccc(O)cc1)CN1CCC[C@H]1C(=O)NNC(N)=O [BRU-3122]
remaining at 1 h, 0.3 mg/mL [1]: 100% | EC50 [2, 6]: 3.13 µM

remaining at 1 h, 0.3 mg/mL [1]: 38.7 ± 5.9%
Molecule: N=C(N)NCCC[C@@H](NC(=O)[C@H](Cc1c[nH]cn1)NC(=O)[C@H](CO)NC(=O)[C@H](Cc1c[nH]c2ccccc12)NC(=O)[C@H](Cc1c[nH]cn1)NC(=O)[C@@H]1CCC(=O)N1)C(=O)N[C@@H](Cc1c[nH]c2ccccc12)C(=O)N[C@@H](Cc1ccc(O)cc1)C(=O)N1CSC[C@H]1C(=O)NNC(N)=O [BRU-3124] (HELM PEPTIDE1{[Glp].H.W.S.H.[dR].W.Y.[O=C([C@@H]1CSCN1[*:1])[*:2]].[O=C(NN[*:1])[*:2]].[am]}$$$$V2.0)

Molecule: N=C(N)NCCC[C@H](NC(=O)[C@@H](Cc1ccc2ccccc2c1)NC(=O)CN1CCN(CC(=O)O)CCN(CC(=O)O)CCN(CC(=O)O)CC1)C(=O)N[C@@H](Cc1c[nH]c2ccccc12)C(=O)N[C@@H](CO)C(=O)N[C@@H](Cc1c[nH]cn1)C(=O)N[C@H](CCCNC(=N)N)C(=O)N[C@@H](Cc1c[nH]c2ccccc12)C(=O)N[C@@H](Cc1ccc(C(=O)c2ccccc2)cc1)C(=O)N1C[C@H](F)C[C@H]1C(=O)NNC(N)=O [Lu-BRU-2994]
remaining at 1 h, 0.3 mg/mL [1]: 45.7 ± 1.2% | EC50 ([2]; Table 22, unit inferred): 0.6 µM

EC50 [3]: 0.72 µM
B1: BRU-3064 (peptide)
peptide: DO3A10CM-[d2Nal]RWSH[dR]W[Bpa4]-OH
modifications: reading uncertain; also: printed as DO3A10CM-Dnal2-Arg-Trp-Ser-His-Darg-Trp-Bpa4-OH

EC50 [4]: 0.74 µM | EC50 [3]: 0.84 µM
B2: BRU-2477 (peptide)
peptide: [pGlu]HWSH[dR]WYP[azaGly]-NH2

EC50 [3]: 3.13 µM
B3: BRU-3122 (peptide)
peptide: [pGlu]HWSH[dR]WYP[azaGly]-NH2
modifications: also: reduced amide bond Ψ(CH2N) between Tyr8 and Pro9

EC50 [5]: 0.38 µM | EC50 [4]: 0.38 µM | EC50 [3]: 0.38 µM
B4: BRU-2993 (peptide)
peptide: XRWSHXWXXX
modifications: N-terminal DO3A10CM; Dnal2 at 1; Darg at 6; Bpa4 at 8; Aze at 9; azaGly-NH2 at 10

EC50 [5]: 0.6 µM | EC50 [4]: 0.6 µM | EC50 [3]: 0.6 µM
B5: BRU-2994 (peptide)
peptide: XRWSHXWXXX
modifications: N-terminal DO3A10CM; Dnal2 at 1; Darg at 6; Bpa4 at 8; Flp4 at 9; azaGly-NH2 at 10

EC50 [5]: 0.41 µM | EC50 [4]: 0.41 µM | EC50 [3]: 0.41 µM
B6: BRU-2995 (peptide)
peptide: DO3A10CM-[d2Nal]RWSH[dR]W[Bpa][Ampt4][azaGly]-NH2
modifications: reading uncertain; also: printed as DO3A10CM-Dnal2-Arg-Trp-Ser-His-Darg-Trp-Bpa4-Ampt4-azaGly-NH2

EC50 [3]: 15.8 µM
B7: BRU-3046 (peptide)
peptide: XRWSHXW
modifications: as printed: DO3A10CM-Dnal2-Arg-Trp-Ser-His-Darg-Trp-OH

EC50 [5]: 0.3 µM | EC50 [3]: 0.3 µM
B8: BRU-3081 (peptide)
peptide: XRWSHXWXPX
modifications: N-terminal DO3A10CM; Dnal2 at 1; Darg at 6; Bpa4-psi(CH2N)-Pro reduced amide isostere at 8-9; azaGly-NH2 at 10
